# From PubChem BioAssay AID1963827 (Molecular Pharmacology Branch, DTP, NCI, 2024)
# Tested on: 994946-033-R-J1-PDC complex spheroid viability
# Test: Anticancer human tumor 994946-033-R-J1-PDC patient-derived melanoma cell line growth inhibition [POLQ]
# Conditions: for IC50: curve of first compound; for viability, T/C: stronger effect = lower value
# How it was run: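 PDC + HUVEC + MSC complex spheroids; POLQ inhibitors ± partner drugs; top conc. at/near clinical Cmax, else 10 microM (SN-38 1 microM), half-log dilutions; 37 degrees C, 5% CO2.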
# [1] = second compound 0.0316 µM, first compound 0.0316 µM
# [2] = second compound 0.0316 µM, first compound 0.1 µM
# [3] = second compound 0.0316 µM, first compound 0.316 µM
# [4] = second compound 0.0316 µM, first compound 1 µM
# [5] = second compound 0.0316 µM, first compound 3.16 µM
# [6] = second compound 0.0316 µM, first compound 10 µM
# [7] = second compound 0.1 µM, first compound 0.0316 µM
# [8] = second compound 0.1 µM, first compound 0.1 µM
# [9] = second compound 0.1 µM, first compound 0.316 µM
# [10] = second compound 0.1 µM, first compound 1 µM
# [11] = second compound 0.1 µM, first compound 3.16 µM
# [12] = second compound 0.1 µM, first compound 10 µM
# [13] = second compound 0.316 µM, first compound 0.0316 µM
# [14] = second compound 0.316 µM, first compound 0.1 µM
# [15] = second compound 0.316 µM, first compound 0.316 µM
# [16] = second compound 0.316 µM, first compound 1 µM
# [17] = second compound 0.316 µM, first compound 3.16 µM
# [18] = second compound 0.316 µM, first compound 10 µM
# [19] = second compound 1 µM, first compound 0.0316 µM
# [20] = second compound 1 µM, first compound 0.1 µM
# [21] = second compound 1 µM, first compound 0.316 µM
# [22] = second compound 1 µM, first compound 1 µM
# [23] = second compound 1 µM, first compound 3.16 µM
# [24] = second compound 1 µM, first compound 10 µM
# [25] = second compound 3.16 µM, first compound 0.0316 µM
# [26] = second compound 3.16 µM, first compound 0.1 µM
# [27] = second compound 3.16 µM, first compound 0.316 µM
# [28] = second compound 3.16 µM, first compound 1 µM
# [29] = second compound 3.16 µM, first compound 3.16 µM
# [30] = second compound 3.16 µM, first compound 10 µM
# [31] = second compound 10 µM, first compound 0.0316 µM
# [32] = second compound 10 µM, first compound 0.1 µM
# [33] = second compound 10 µM, first compound 0.316 µM
# [34] = second compound 10 µM, first compound 1 µM
# [35] = second compound 10 µM, first compound 3.16 µM
# [36] = second compound 10 µM, first compound 10 µM
# 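Note: spheroids exposed to drugs for 7 days.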
# 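Throughout, for viability, T/C: 100% = DMSO vehicle treated spheroids.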
compound,measurement,setting,value
CC1COCCN1c1cc(C2(O)CC3CCC(C2)O3)c2cnn(-c3ccn[nH]3)c2n1 (centres undefined) + Nc1ccc(C#CCN(C(=O)Cc2ncc(C(F)(F)F)cc2C(F)(F)F)c2ccc(F)cc2)nn1,IC50,second compound 0.0316 µM,0.0513 µM
same,IC50,second compound 0.1 µM,< 0.0316 µM
same,IC50,second compound 0.316 µM,< 0.0316 µM
same,IC50,second compound 1 µM,0.0687 µM
same,IC50,second compound 3.16 µM,0.0386 µM
same,IC50,second compound 10 µM,< 0.0316 µM
same,"viability, T/C",[1],59.9%
same,"viability, T/C",[2],36.3%
same,"viability, T/C",[3],23.4%
same,"viability, T/C",[4],18.8%
same,"viability, T/C",[5],13.9%
same,"viability, T/C",[6],6.85%
same,"viability, T/C",[7],43.3%
same,"viability, T/C",[8],27.6%
same,"viability, T/C",[9],24.2%
same,"viability, T/C",[10],19.9%
same,"viability, T/C",[11],10.6%
same,"viability, T/C",[12],9.96%
same,"viability, T/C",[13],48.5%
same,"viability, T/C",[14],24.9%
same,"viability, T/C",[15],26.3%
same,"viability, T/C",[16],19.6%
same,"viability, T/C",[17],17.6%
same,"viability, T/C",[18],9.49%
same,"viability, T/C",[19],74.5%
same,"viability, T/C",[20],31.9%
same,"viability, T/C",[21],33.7%
same,"viability, T/C",[22],10.7%
same,"viability, T/C",[23],13%
same,"viability, T/C",[24],9.29%
same,"viability, T/C",[25],55.6%
same,"viability, T/C",[26],22.8%
same,"viability, T/C",[27],19.8%
same,"viability, T/C",[28],21.4%
same,"viability, T/C",[29],17.8%
same,"viability, T/C",[30],8.76%
same,"viability, T/C",[31],38.3%
same,"viability, T/C",[32],54.1%
same,"viability, T/C",[33],24.6%
same,"viability, T/C",[34],23.6%
same,"viability, T/C",[35],14.6%
same,"viability, T/C",[36],5.15%
O=C(Nc1ccc(O)c(NS(=O)(=O)c2ccc(F)cc2)c1)c1ccc(-c2ccccc2)cc1 + Nc1ccc(C#CCN(C(=O)Cc2ncc(C(F)(F)F)cc2C(F)(F)F)c2ccc(F)cc2)nn1,IC50,second compound 0.0316 µM,7.1 µM
same,IC50,second compound 0.1 µM,4.79 µM
same,IC50,second compound 0.316 µM,7.55 µM
same,IC50,second compound 1 µM,8.49 µM
same,IC50,second compound 3.16 µM,9.09 µM
same,IC50,second compound 10 µM,> 10 µM
same,"viability, T/C",[1],79.4%
same,"viability, T/C",[2],95.7%
same,"viability, T/C",[3],92.9%
same,"viability, T/C",[4],77.1%
same,"viability, T/C",[5],84.1%
same,"viability, T/C",[6],35.6%
same,"viability, T/C",[7],104%
same,"viability, T/C",[8],94.1%
same,"viability, T/C",[9],100%
same,"viability, T/C",[10],111%
same,"viability, T/C",[11],59.8%
same,"viability, T/C",[12],32.7%
same,"viability, T/C",[13],88.2%
same,"viability, T/C",[14],134%
same,"viability, T/C",[15],97.6%
same,"viability, T/C",[16],89.9%
same,"viability, T/C",[17],93.1%
same,"viability, T/C",[18],36.7%
same,"viability, T/C",[19],98.1%
same,"viability, T/C",[20],74.2%
same,"viability, T/C",[21],133%
same,"viability, T/C",[22],117%
same,"viability, T/C",[23],92.8%
same,"viability, T/C",[24],42.9%
same,"viability, T/C",[25],114%
same,"viability, T/C",[26],84.7%
same,"viability, T/C",[27],98.4%
same,"viability, T/C",[28],94.4%
same,"viability, T/C",[29],67.4%
same,"viability, T/C",[30],48.8%
same,"viability, T/C",[31],78.7%
same,"viability, T/C",[32],78.4%
same,"viability, T/C",[33],79%
same,"viability, T/C",[34],96.5%
same,"viability, T/C",[35],76%
same,"viability, T/C",[36],53.1%
